Reference: patent US20230407243A1, “GENETIC PLATFORM TO INVESTIGATE THE FUNCTIONS OF BACTERIAL DRUG EFFLUX PUMPS” (priority 2022, published 2023)

What was measured:
Type in all cases: cell-based, Escherichia coli
[1] = test system: EKO-35 araC::acrBD408A Pore; assay: MIC susceptibility profiling, porinated efflux platform; conditions: for Fold changes of MICs: EKO-35 araC::acrBD408A Pore compared to EKO-35-Pore; for MIC: Escherichia coli, read-out: Minimum inhibitory concentration
Summary of the method: (§1)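 Strains carry the fhuA ΔC/Δ4L pore integrated between glmS and pstS under a constitutive promoter, with pore activity checked by vancomycin susceptibility. Overnight LB cultures were adjusted in PBS pH 7.4 to OD600 ~1.0 and diluted 1/2000 into MHB II. 2-fold compound titrations were read by OD600 after 18 h at 37 °C.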

[2] = test system: EKO-35 araC::acrEF Pore; assay: as above; conditions: for Fold changes of MICs: EKO-35 araC::acrEF Pore compared to EKO-35-Pore; for MIC: Escherichia coli, read-out: Minimum inhibitory concentration, EKO-35 araC::acrEF Pore
Summary of the method: as §1

[3] = test system: EKO-35 araC::mdtEF Pore; assay: as above; conditions: for Fold changes of MICs: EKO-35 araC::mdtEF Pore compared to EKO-35-Pore; for MIC: Escherichia coli, read-out: Minimum inhibitory concentration, EKO-35 araC::mdtEF Pore
Summary of the method: as §1

[4] = test system: EKO-35 araC::emrKY Pore; assay: as above; conditions: for Fold changes of MICs: EKO-35 araC::emrKY Pore compared to EKO-35-Pore; for MIC: Escherichia coli, read-out: Minimum inhibitory concentration
Summary of the method: as §1

[5] = test system: EKO-35 araC::macAB Pore; assay: as above; conditions: for Fold changes of MICs: EKO-35 araC::macAB Pore compared to EKO-35-Pore; for MIC: Escherichia coli, read-out: Minimum inhibitory concentration
Summary of the method: as §1

[6] = test system: EKO-35 araC::mdtBC Pore; assay: as above; conditions: for Fold changes of MICs: EKO-35 araC::mdtBC Pore compared to EKO-35-Pore; for MIC: Escherichia coli, read-out: Minimum inhibitory concentration
Summary of the method: as §1

[7] = test system: EKO-35 araC::acrB Pore; assay: as above; conditions: for Fold changes of MICs: EKO-35 araC::acr-B Pore compared to EKO-35-Pore
Summary of the method: as §1

[8] = test system: EKO-35 araC::emrAB Pore; assay: as above; conditions: for Fold changes of MICs: EKO-35 araC::emrAB Pore compared to EKO-35-Pore; for MIC: Escherichia coli, read-out: Minimum inhibitory concentration
Summary of the method: as §1

[9] = test system: EKO-35 araC::mexCD Pore; assay: as above; conditions: for Fold changes of MICs: EKO-35 araC::mexCD Pore compared to EKO-35-Pore; for MIC: Escherichia coli, read-out: Minimum inhibitory concentration
Summary of the method: as §1

[10] = test system: EKO-35 araC::acrD Pore; assay: as above; conditions: for Fold changes of MICs: EKO-35 araC::acrD Pore compared to EKO-35-Pore; for MIC: Escherichia coli, read-out: Minimum inhibitory concentration, EKO-35 araC::acrD Pore
Summary of the method: as §1

[11] = test system: EKO-35 araC::macAB; assay: MIC susceptibility profiling, efflux platform; conditions: for Fold change of MICs: EKO-35 araC::macAB compared to EKO-35; for MIC: Escherichia coli, read-out: Minimum Inhibitory Concentration, EKO-35 araC::macAB
Summary of the method: (§2)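 Broth MIC in cation-adjusted Mueller-Hinton (MHB II) following twofold compound titration in duplicate. Bacteria were prepared at OD600 ~1.0 in PBS and diluted 1/2000. Endpoint OD600 after 18 h at 37 °C was corrected using the pre-incubation reading.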

[12] = test system: EKO-35 araC::emrAB; assay: MIC susceptibility profiling, efflux platform; conditions: for Fold change of MICs: EKO-35 araC::emrAB compared to EKO-35; for MIC: Escherichia coli, read-out: Minimum Inhibitory Concentration, EKO-35 araC::emrAB
Summary of the method: as §2

[13] = test system: EKO-35 araC::mdtBC; assay: MIC susceptibility profiling, efflux platform; conditions: for Fold change of MICs: EKO-35 araC::mdtBC compared to EKO-35; for MIC: Escherichia coli, read-out: Minimum Inhibitory Concentration, EKO-35 araC::mdtBC
Summary of the method: as §2

[14] = test system: EKO-35 araC::acrBD408A; assay: MIC susceptibility profiling, efflux platform; conditions: for Fold change of MICs: EKO-35 araC::acrBD408A compared to EKO-35; for MIC: Escherichia coli, read-out: Minimum Inhibitory Concentration, EKO-35 araC::acrBD408A
Summary of the method: as §2

[15] = test system: EKO-35 araC::acrEF; assay: MIC susceptibility profiling, efflux platform; conditions: for Fold change of MICs: EKO-35 araC::acrEF compared to EKO-35; for MIC: Escherichia coli, read-out: Minimum Inhibitory Concentration, EKO-35 araC::acrEF
Summary of the method: as §2

[16] = test system: EKO-35 araC::mexCD (MexCD from P. aeruginosa); assay: MIC susceptibility profiling, efflux platform; conditions: for Fold change of MICs: EKO-35 araC::mexCD compared to EKO-35; for MIC: read-out: Minimum Inhibitory Concentration, EKO-35 araC::mexCD
Summary of the method: as §2

[17] = test system: EKO-35 araC::emrKY; assay: MIC susceptibility profiling, efflux platform; conditions: for Fold change of MICs: EKO-35 araC::emrKY compared to EKO-35; for MIC: Escherichia coli, read-out: Minimum Inhibitory Concentration, EKO-35 araC::emrKY
Summary of the method: as §2

[18] = test system: EKO-35 araC::acrD; assay: MIC susceptibility profiling, efflux platform; conditions: for Fold change of MICs: EKO-35 araC::acrD compared to EKO-35; for MIC: Escherichia coli, read-out: Minimum Inhibitory Concentration, EKO-35 araC::acrD
Summary of the method: as §2

[19] = EKO-35 araC::acrBD408A Pore, technical duplicate
[20] = Table 14A, porinated, technical duplicate
[21] = EKO-35 araC::emrKY Pore, technical duplicate
[22] = EKO-35 araC::macAB Pore, technical duplicate
[23] = EKO-35 araC::mdtBC Pore, technical duplicate
[24] = EKO-35 araC::emrAB Pore, technical duplicate
[25] = EKO-35 araC::mexCD Pore, technical duplicate
[26] = Table 13B, non-porinated, technical duplicate
[27] = Table 13A, non-porinated, technical duplicate

Structure (SMILES)	Fold changes of MICs [1] [fold]	MIC [1, 19] [µg/mL]	Fold changes of MICs [2] [fold]	MIC [2, 20] [µg/mL]	Fold changes of MICs [3] [fold]	Fold changes of MICs [4] [fold]	Fold changes of MICs [5] [fold]	Fold changes of MICs [6] [fold]	Fold changes of MICs [7] [fold]	Fold changes of MICs [8] [fold]	Fold changes of MICs [9] [fold]	Fold changes of MICs [10] [fold]	Fold change of MICs [11] [fold]	Fold change of MICs [12] [fold]	Fold change of MICs [13] [fold]	Fold change of MICs [14] [fold]	Fold change of MICs [15] [fold]	Fold change of MICs [16] [fold]	Fold change of MICs [17] [fold]	Fold change of MICs [18] [fold]	other results
COc1cccc2c1C(=O)c1c(O)c3c(c(O)c1C2=O)C[C@@](O)(C(=O)CO)C[C@@H]3O[C@H]1C[C@H](N)[C@H](O)[C@H](C)O1 [doxorubicin]	1	0.781	16	12.5	32	1	1	4	64	1	4	1	1	1	1	1	64	16	1	2	MIC [3, 20]: 25 µg/mL; MIC [4, 21]: 0.781 µg/mL; MIC [5, 22]: 0.781 µg/mL; MIC [6, 23]: 3.12 µg/mL; efflux pump-mediated resistance vs EKO-35-Pore ([6]; MdtBC with the pore): associated with resistance; MIC [8, 24]: 0.781 µg/mL; MIC [9, 25]: 3.12 µg/mL; MIC [10, 20]: 0.781 µg/mL; MIC [11, 26]: 1.56 µg/mL; MIC [12, 26]: 1.56 µg/mL; MIC [13, 26]: 1.56 µg/mL; MIC [14, 26]: 1.56 µg/mL; MIC [15, 27]: 100 µg/mL; MIC [16, 26]: 25 µg/mL; MIC [17, 26]: 1.56 µg/mL; MIC [18, 27]: 3.12 µg/mL
N#CC(=NNc1cccc(C(F)(F)F)c1)C(=O)c1ccsc1 [compound 3]	1		1		1	1	1	1	1	1	1	1	1	1	1	1	1	1	1	1	Minimum inhibitory concentration [1, 19]: 320 µg/mL; Minimum inhibitory concentration, EKO-35 araC::acrEF Pore [2, 20]: 320 µg/mL; Minimum inhibitory concentration, EKO-35 araC::mdtEF Pore [3, 20]: 320 µg/mL; Minimum inhibitory concentration [4, 21]: 320 µg/mL; Minimum inhibitory concentration [5, 22]: 320 µg/mL; Minimum inhibitory concentration [6, 23]: 320 µg/mL; Minimum inhibitory concentration, EKO-35 araC::acrB Pore [7, 20]: 320 µg/mL; Minimum inhibitory concentration [8, 24]: 320 µg/mL; Minimum inhibitory concentration [9, 25]: 320 µg/mL; Minimum inhibitory concentration, EKO-35 araC::acrD Pore [10, 20]: 320 µg/mL; Minimum Inhibitory Concentration, EKO-35 araC::macAB [11, 26]: 320 µg/mL; Minimum Inhibitory Concentration, EKO-35 araC::emrAB [12, 26]: 320 µg/mL; Minimum Inhibitory Concentration, EKO-35 araC::mdtBC [13, 26]: 320 µg/mL; Minimum Inhibitory Concentration, EKO-35 araC::acrBD408A [14, 26]: 320 µg/mL; Minimum Inhibitory Concentration, EKO-35 araC::acrEF [15, 27]: 320 µg/mL; Minimum Inhibitory Concentration, EKO-35 araC::mexCD [16, 26]: 320 µg/mL; Minimum Inhibitory Concentration, EKO-35 araC::emrKY [17, 26]: 320 µg/mL; Minimum Inhibitory Concentration, EKO-35 araC::acrD [18, 27]: 320 µg/mL
O=C(N[C@H](CO)[C@H](O)c1ccc([N+](=O)[O-])cc1)C(Cl)Cl [chloramphenicol]	1	0.781	1	0.781	1	1	1	1	4	1	1	1	1	1	1	1	2	1	1	2	MIC [3, 20]: 0.781 µg/mL; MIC [4, 21]: 0.391 µg/mL; MIC [5, 22]: 0.781 µg/mL; MIC [6, 23]: 0.781 µg/mL; MIC [8, 24]: 0.781 µg/mL; MIC [9, 25]: 0.781 µg/mL; MIC [10, 20]: 0.781 µg/mL; MIC [11, 26]: 0.781 µg/mL; MIC [12, 26]: 0.781 µg/mL; MIC [13, 26]: 0.781 µg/mL; MIC [14, 26]: 0.781 µg/mL; MIC [15, 27]: 1.56 µg/mL; MIC [16, 26]: 0.781 µg/mL; MIC [17, 26]: 0.391 µg/mL; MIC [18, 27]: 1.56 µg/mL
